Source: patent US9535057B2, “Method of in vivo screening for cardiac toxic agents using teleost” (CITY UNIVERSITY OF HONG KONG, priority 2007, dated 2017)

Tested on: zebrafish embryos
Assay: Cardiotoxicity screen in zebrafish embryos: heart rate and heart beat rhythm from video of blood circulation with power spectral analysis, and by direct examination of heart
Type: in vivo
Details: 48-hpf zebrafish embryos, 2 μM haloperidol in egg medium, 4 hour incubation; direct examination of heart and power spectral analysis (FIG. 7); p<0.05 vs control
Source text: Before videoing blood cell circulation, the teleost is immobilized on a surface, for example, glass slide or plastic petri dish. Immobilization medium can be agarose, agar or methyl-cellulose. The optimal concentration of agarose or agar used is 0.5% (w/v) or lower. The concentration of methyl-cellulose used is 2-4% (w/v). Teleosts should be oriented in their spontaneous lateral position.
A video imaging system consists of a microscope, either stereomicroscope or conventional light microscope, with low magnification objective (FIG. 1). […] Video recorded in medium, e.g. VCR tape or mini DV tape, or recorded in personal computer is converted back to readable format, such as AVI or WMV format, and stored in personal computer for further video image analysis. […]
Data analysis of the series of the amount of differential pixels obtained from video image analysis is performed by methods implemented in the home-made software. Data series of amount of differential pixels is analyzed by comprising power spectral analysis in which data series of differential pixels is decomposed by discrete Fourier transform. […] A total power value of the spectrum is calculated. […]
The embodiment is tested in wild type embryos at 52 hpf. […] Heart rate is determined from direct visual counting of the number of heart beats in 1 min. […] In addition, the cardiac rhythm is determined as the standard deviation of heart beat time interval. […]

`O=C(CCCN1CCC(O)(c2ccc(Cl)cc2)CC1)c1ccc(F)cc1` [haloperidol] was tested. Which heart rate did it give?
Its heart rate is “significantly decreased”.
